In brackets after ≈: the same amount, converted by molar mass.
Columns and labels:
Format in all cases: functional
[1] = test system: Mycobacterium tuberculosis
[2] = test system: Mycobacterium tuberculosis; remark: listed apart in the source
[3] = test system: Mycobacterium tuberculosis; remark: listed apart in the source

COc1nc2ccc(Br)cc2cc1[C@@H](c1ccccc1)[C@@](O)(CCN(C)C)c1cccc2ccccc12 [BEDAQUILINE]
MIC [1]: 0.03 µg/mL (≈ 0.054 µM)
MIC [2]: 0.01 µg/mL (≈ 0.018 µM)

O=[N+]([O-])c1cn2c(n1)OC[C@@H](OCc1ccc(OC(F)(F)F)cc1)C2 [PRETOMANID]
MIC50 [3]: 0.015 µg/mL (≈ 0.0418 µM)
MIC90 [3]: 0.063 µg/mL (≈ 0.175 µM)

From ChEMBL document CHEMBL5331057, “A decade of approved first-in-class small molecule orphan drugs: Achievements, challenges and perspectives” (Eur J Med Chem, 2022)
